Measurements published in ChEMBL document CHEMBL5247584, “Design, synthesis and evaluation of fused hybrids with acetylcholinesterase inhibiting and Nrf2 activating functions for Alzheimer's disease” (Eur J Med Chem, 2022).
Active and inactive are the calls of the source. No cut-off for these calls is given here.

Tests used:
[1] = test system: HepG2-ARE-C8; assay: Cytotoxicity against human HepG2-ARE-C8 cells assessed as reduction in cell viability at 5 and 20 uM measured for 24 hrs by MTT assay; type: functional, cell-based
[2] = target: T1, Nuclear factor erythroid 2-related factor 2 (Rattus norvegicus) (UniProt O54968); assay: Induction of Nrf2 nuclear translocation in rat PC12 cells measured for 12 hrs by FITC staining based confocal microscopic analysis; type: cell-based; conditions: filed as activator
T1 sequence (whole entry): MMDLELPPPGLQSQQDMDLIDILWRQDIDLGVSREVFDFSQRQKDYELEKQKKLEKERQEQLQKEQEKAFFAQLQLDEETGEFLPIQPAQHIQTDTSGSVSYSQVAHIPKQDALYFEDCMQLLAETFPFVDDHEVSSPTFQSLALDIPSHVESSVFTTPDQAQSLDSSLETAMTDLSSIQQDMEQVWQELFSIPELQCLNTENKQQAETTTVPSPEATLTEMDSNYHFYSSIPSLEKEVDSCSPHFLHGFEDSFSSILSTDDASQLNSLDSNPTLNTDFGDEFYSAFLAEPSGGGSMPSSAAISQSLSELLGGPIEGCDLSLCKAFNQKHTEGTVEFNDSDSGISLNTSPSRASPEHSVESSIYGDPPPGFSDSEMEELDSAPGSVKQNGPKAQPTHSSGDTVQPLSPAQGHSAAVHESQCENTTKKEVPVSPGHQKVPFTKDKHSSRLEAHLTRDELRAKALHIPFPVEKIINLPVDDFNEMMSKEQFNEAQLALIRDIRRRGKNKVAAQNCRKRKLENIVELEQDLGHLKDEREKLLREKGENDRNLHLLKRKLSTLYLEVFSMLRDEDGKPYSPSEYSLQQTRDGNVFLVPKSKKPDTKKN

[3] = test system: SH-SY5Y; assay: Neuroprotective activity against Abeta1-42-induced human SH-SY5Y cells assessed as restoration of cell viability preinubated for 2 hrs followed by Abeta1-42 induction and measured after 24 hrs by MTT assay; type: functional, cell-based; conditions: time 26.0 hrs
[4] = target: T1, Nuclear factor erythroid 2-related factor 2 (Rattus norvegicus); assay: Activation of Nrf2 pathway in rat PC-12 cells assessed as fold increase in GCLM level at 20 uM measured at 2 hrs by qRT-PCR analysis; type: cell-based; conditions: PC12, filed as activator
[5] = test system: Mus musculus; assay: Antialzheimer activity against scopolamine-induced cognitive impairment ICR mouse model assessed as distance to reach target at 3 mg/kg, po administered once a day for 10 days and measured after 5 to 10 days by Morris water maze test; type: functional, organism-based; conditions: time 5-10 day
[6] = Hepatotoxicity in […] assessed as effect on AST level; type: toxicity, cell-based
[7] = test system: BV-2; assay: Antiinflammatory activity against LPS-injured mouse BV-2 cells assessed as decrease in IL-6 level at 5 uM by immunofluorescence staining based analysis; type: functional, cell-based
[8] = target: T1, Nuclear factor erythroid 2-related factor 2 (Rattus norvegicus); assay: Activation of Nrf2 pathway in rat PC-12 cells assessed as fold increase in GCLM expression level at 1 to 20 uM measured at 6 hrs by qRT-PCR analysis; type: cell-based; conditions: PC12, filed as activator, dose 1-20 µM
[9] = test system: Mus musculus; assay: Antialzheimer activity against scopolamine-induced cognitive impairment ICR mouse model assessed as reduction in escape latency at 3 mg/kg, po administered once a day for 10 days and measured after 5 to 10 days by Morris water maze test; type: functional, organism-based; conditions: time 5-10 day
[10] = […] in rat PC12 cells assessed as morphological changes; type: toxicity, cell-based; conditions: pc-12
[11] = target: T1, Nuclear factor erythroid 2-related factor 2 (Rattus norvegicus); assay: Activation of Nrf2 pathway in rat PC-12 cells assessed as fold increase in HO-1 level at 20 uM measured at 2 hrs by qRT-PCR analysis; type: cell-based; conditions: PC12, filed as activator
[12] = test system: Mus musculus; assay: Antiinflammatory activity Abeta1-42-induced against ICR mouse assessed as increase in TGF-beta1 level at 20 mg/kg, po by ELISA analysis; type: functional, organism-based
[13] = test system: Mus musculus; assay: Antiinflammatory activity Abeta1-42-induced against ICR mouse assessed as increase in TGF-beta1 level at 10 mg/kg, po by ELISA analysis; type: functional, organism-based
[14] = Hepatotoxicity in […] assessed as effect on ALT level; type: toxicity, cell-based
[15] = test system: Mus musculus; assay: Neuroprotective activity against Abeta1-42-induced ICR mouse at 20 mg/kg, po by ELISA analysis; type: functional, organism-based
[16] = target: T1, Nuclear factor erythroid 2-related factor 2 (Rattus norvegicus); assay: Induction of Nrf2 pathway in rat PC12 cells assessed as fold increase in Nrf2 level at 20 uM measured after 6 hrs by Western blot analysis; type: cell-based; conditions: filed as activator
[17] = test system: Mus musculus; assay: Neuroprotective activity against Abeta1-42-induced ICR mouse at 10 mg/kg, po by ELISA analysis; type: functional, organism-based
[18] = test system: SH-SY5Y; assay: Antiproliferative activity against human SH-SY5Y cells assessed as reduction in cell viability measured for 24 hrs by MTT assay; type: functional, cell-based
[19] = test system: Mus musculus; assay: Cognitive enhancing effect in amyloid beta (1 to 42)-induced ICR mouse model assessed as increase in ACh level at 10 mg/kg […] by ELISA; type: functional, organism-based
[20] = test system: Mus musculus; assay: Antialzheimer activity against scopolamine-induced cognitive impairment ICR mouse model assessed as confuse escape tracks at 3 mg/kg, po administered once a day for 10 days and measured after 5 to 10 days by Morris water maze test; type: functional, organism-based; conditions: time 5-10 day
[21] = test system: Mus musculus; assay: Antialzheimer activity against scopolamine-induced cognitive impairment ICR mouse model assessed as decrease in arrival time at 3 mg/kg, po administered once a day for 10 days and measured after 5 to 10 days by Morris water maze test; type: functional, organism-based; conditions: time 5-10 day
[22] = target: Acetylcholinesterase (Homo sapiens, UniProt P22303); assay: Inhibition of human AChE using ATC and BTC iodide as substrate preincubated for 5 mins followed by substrate addition and measured after 2 mins by DTNB reagent based assay
[23] = test system: Mus musculus; assay: Cognitive enhancing effect in amyloid beta (1 to 42)-induced ICR mouse model assessed as increase in ACh level at 20 mg/kg […] by ELISA; type: functional, organism-based
[24] = target: T1, Nuclear factor erythroid 2-related factor 2 (Rattus norvegicus); assay: Activation of Nrf2 pathway in rat PC-12 cells assessed as decrease in Nrf2 accumulation in cytoplasm at 20 uM measured after 1 to 5 hrs by Western blot analysis; type: cell-based; conditions: PC12, time 1-5 hrs
[25] = test system: Mus musculus; assay: Antiinflammatory activity Abeta1-42-induced against ICR mouse assessed as increase in TGF-beta1 level at 10 mg/kg, po in presence of presence of donepezil by ELISA analysis; type: functional, organism-based
[26] = target: T1, Nuclear factor erythroid 2-related factor 2 (Rattus norvegicus); assay: Activation of Nrf2 pathway in rat PC-12 cells assessed as fold increase in NQO1 expression level at 1 to 20 uM measured at 6 hrs by qRT-PCR analysis; type: cell-based; conditions: PC12, filed as activator, dose 1-20 µM
[27] = target: T1, Nuclear factor erythroid 2-related factor 2 (Rattus norvegicus); assay: Activation of Nrf2 pathway in rat PC-12 cells assessed as fold increase in NQO1 level at 20 uM measured at 2 hrs by qRT-PCR analysis; type: cell-based; conditions: PC12, filed as activator
[28] = target: T1, Nuclear factor erythroid 2-related factor 2 (Rattus norvegicus); assay: Activation of Nrf2 pathway in rat PC-12 cells assessed as increase in NQO1 level at 20 uM measured after 6 hrs by Western blot analysis; type: cell-based; conditions: PC12, filed as activator
[29] = target: T1, Nuclear factor erythroid 2-related factor 2 (Rattus norvegicus); assay: Activation of Nrf2 pathway in rat PC-12 cells assessed as fold increase in Nrf2 level at 20 uM measured at 2 hrs by qRT-PCR analysis; type: cell-based; conditions: PC12, filed as activator
[30] = target: Cholinesterase (Equus caballus, UniProt P81908); assay: Inhibition of equine serum BuChE using ATC and BTC iodide as substrate preincubated for 5 mins followed by substrate addition and measured after 2 mins by DTNB reagent based assay
Chain of Cholinesterase (P81908 whole entry): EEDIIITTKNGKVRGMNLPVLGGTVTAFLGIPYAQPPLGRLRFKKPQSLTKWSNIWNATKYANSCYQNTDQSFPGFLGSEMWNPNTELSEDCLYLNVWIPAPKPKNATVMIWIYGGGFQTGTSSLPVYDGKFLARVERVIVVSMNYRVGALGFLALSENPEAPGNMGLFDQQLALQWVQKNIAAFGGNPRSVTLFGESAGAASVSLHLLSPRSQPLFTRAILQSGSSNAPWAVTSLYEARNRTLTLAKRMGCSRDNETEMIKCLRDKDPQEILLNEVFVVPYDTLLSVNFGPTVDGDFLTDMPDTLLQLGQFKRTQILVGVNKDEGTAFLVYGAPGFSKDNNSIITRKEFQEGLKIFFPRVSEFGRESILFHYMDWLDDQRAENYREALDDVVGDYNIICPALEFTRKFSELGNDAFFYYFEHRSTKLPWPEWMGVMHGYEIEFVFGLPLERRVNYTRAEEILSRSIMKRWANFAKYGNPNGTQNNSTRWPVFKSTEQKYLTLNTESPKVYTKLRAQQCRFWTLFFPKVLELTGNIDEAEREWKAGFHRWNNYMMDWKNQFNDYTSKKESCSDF

Chain of Acetylcholinesterase (P22303 whole entry): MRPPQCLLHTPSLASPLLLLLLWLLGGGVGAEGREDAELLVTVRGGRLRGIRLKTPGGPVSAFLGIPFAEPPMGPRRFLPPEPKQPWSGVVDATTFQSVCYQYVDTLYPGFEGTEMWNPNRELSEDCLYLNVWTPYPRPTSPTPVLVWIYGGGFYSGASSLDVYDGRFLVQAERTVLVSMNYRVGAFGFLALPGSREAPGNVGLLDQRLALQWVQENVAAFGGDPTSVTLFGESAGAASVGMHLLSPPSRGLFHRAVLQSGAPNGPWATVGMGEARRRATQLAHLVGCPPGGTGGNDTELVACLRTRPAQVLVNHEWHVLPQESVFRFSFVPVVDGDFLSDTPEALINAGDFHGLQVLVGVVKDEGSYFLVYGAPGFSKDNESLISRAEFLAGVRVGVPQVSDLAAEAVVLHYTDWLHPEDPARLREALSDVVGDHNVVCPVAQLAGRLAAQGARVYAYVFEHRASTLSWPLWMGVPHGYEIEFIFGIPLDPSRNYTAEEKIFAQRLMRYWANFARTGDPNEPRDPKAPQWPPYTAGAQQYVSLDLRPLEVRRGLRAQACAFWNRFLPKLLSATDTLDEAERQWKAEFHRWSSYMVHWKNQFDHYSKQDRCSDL

SMILES: Cc1ccc(-c2noc(-c3cccc(OCC4CCN(Cc5cccc(F)c5)CC4)c3)n2)cn1
- Activity [1]: inactive
- Activity [2]: Active
- Activity [3]: Active
- fold change (FC) [4]: 8
- Activity [5]: Active
- Activity [6]: Non-Toxic
- Activity [7]: inactive
- fold change (FC) [8]: 4
- Activity [9]: Active
- Activity [10]: Non-Toxic
- fold change (FC) [11]: 4
- Activity [12]: Active
- Activity [13]: Active
- Activity [14]: Non-Toxic
- Activity [15]: inactive
- fold change (FC) [16]: 4
- Activity [17]: Active
- Activity [18]: inactive
- Activity [19]: Active
- Activity [20]: Active
- Activity [21]: Active
- IC50 [22]: 0.38 µM
- Activity [23]: inactive
- Activity [24]: inactive
- Activity [25]: Active
- fold change (FC) [26]: 4
- fold change (FC) [27]: 8
- Activity [28]: Active
- fold change (FC) [29]: 4
- IC50 [30]: 8.15 µM
